Laboratory results taken from US20250326744A1, “PIPERAZINE DERIVATIVE OR SALT THEREOF, AND PHARMACEUTICAL COMPOSITION” (priority 2022, published 2025).
Counter-ions that a name gives are not always drawn.

Tested on: mexB (EC) strain
Test: Efflux ability inhibition effect on drug efflux pump MexB (Test Examples 1 and 3): proliferation (OD595) of mexB (EC) strain with EM or LVFX at 1/4 MIC, EC75
Assay type: cell-based, Escherichia coli
Conditions: Table 51, Test Example 1, 16 to 20 hours culture, OD595; for EC75, mexB (EC) strain, EM: combined with EM at 1/4 MIC; for EC75, mexB (EC) strain, LVFX: combined with LVFX at 1/4 MIC
Method: The efflux ability inhibition effect of the test compound on the drug efflux pump was evaluated using the bacterial proliferative ability in the presence of EM or LVFX as an index.
EM is a macrolide antibacterial agent and is a drug that is discharged outside the bacteria by MexB and MexY LVFX is a quinolone antibacterial agent and is a drug that is discharged outside the bacteria by MexB and MexY In a case where the test compound has an efflux ability inhibitory ability against the drug efflux pump, the proliferation of bacteria is suppressed by the combined use of EM or LVFX and the test compound, as compared with the case where EM or LVFX is used alone.
A mutant strain (hereinafter, referred to as an “mexB (EC) strain”) obtained by transferring the genes of the main multidrug efflux system MexAB-OprM of Pseudomonas aeruginosa described in Nature, 2013, Vol. 500, pp. 102 to 106 as a plasmid into Escherichia coli strains in which the acrB and tolC genes of the multidrug efflux system AcrAB-TolC were deleted as described in Journal of Infection and Chemotherapy 2008, Vol. 14, pp. 23 to 29, and a gene transfer strain (hereinafter, referred to as an “mexY (EC) strain”) of another main multidrug efflux system MexXY-OprM of Pseudomonas aeruginosa were used for the evaluation of test compounds.
In the mexB (EC) strain, an expression level of MexB of the drug efflux pump is accelerated, and in the mexY (EC) strain, an expression level of MexY of the drug efflux pump is accelerated.
For culturing each Escherichia coli strain, a 96-well plate (amount of culture medium per well: 100 μL) was used and Luria-Bertani broth (LB) culture medium was used. The inoculation amount of the bacteria was set to 10^4 to 5 CFU/well.
The mexB (EC) strain and the mexY (EC) strain were cultured for 16 to 20 hours in a culture medium to which EM or LVFX and test compounds at various concentrations (0 to 800 μM) were added, and the proliferation of the bacterial strains was evaluated by optical turbidity at 595 nm (OD595). The concentration of the antibacterial agents (EM and LVFX) in the culture medium were each set to ¼ of the minimum inhibitory concentration (MIC) (hereinafter, referred to as ¼ MIC) of the single antibacterial agent.
The proliferation of bacteria in a case where the antibacterial agent was added at the concentration of ¼ MIC in a case where the test compound was not added was measured, and compared with the proliferation of bacteria in a case where the test compound was contained, and the lowest concentration of the test compound at which the proliferation was inhibited by 75% or more was defined as the drug efflux pump inhibitory ability of the test compound as 75% inhibitory effect concentration (EC75).
The drug efflux pump inhibitory ability of each test compound in a case of being used in combination with the antibacterial agent against the mexB (EC) strain and the mexY (EC) strain was evaluated as follows according to the value of EC75. • S: EC75≤[…] • A: 12.5 μM<EC75≤25 μM • B: 25 μM<EC75≤100 μM • C: […]
In the same manner as in Test Example 1, the efflux ability inhibition effect of the test compound on the drug efflux pump was evaluated using the bacterial proliferation ability in the presence of EM or LVFX as an index.

SMILES | EC75, mexB (EC) strain, EM | EC75, mexB (EC) strain, LVFX
CCOc1cccc(/C=C/c2nnn[nH]2)c1CN1CCN(C(=O)[C@H](N)C2CCN(CCc3ccccc3)CC2)CC1 [Example 33, Hydrobromide of (R,E)-1-(4-(2-(2-(1H-tetrazol-5-yl)vinyl)-6-ethoxybenzyl)piperazin-1-yl)-2-amino-2-(1-phenethylpiperidin-4-yl) ethan-1-one] | B (25 μM<EC75≤100 μM) | B (25 μM<EC75≤100 μM)
N[C@@H](C(=O)N1CCN(Cc2cccc3cc[nH]c23)CC1)C1CCN(CCc2cc(Cl)ccc2-c2ccccc2)CC1 [Example 40, Hydrobromide of (R)-1-(4-((1H-indol-7-yl)methyl)piperazin-1-yl)-2-amino-2-(1-(2-(4-chloro-[1,1′-biphenyl]-2-yl)ethyl)piperidin-4-yl) ethan-1-one] |  | B (25 μM<EC75≤100 μM)
CCOc1cccc(F)c1CN1CCN(C(=O)[C@H](N)C2CCN(CCc3cc(Cl)ccc3-c3cccc(F)c3)CC2)CC1 [Example 60, Hydrobromide of (R)-2-amino-2-(1-(2-(4-chloro-3′-fluoro-[1,1′-biphenyl]-2-yl)ethyl)piperidin-4-yl)-1-(4-(2-ethoxy-6-fluorobenzyl)piperazin-1-yl)ethan-1-one] | A (12.5 μM<EC75≤25 μM) | 
CCOc1cccc(F)c1CN1CCN(C(=O)[C@H](N)C2CCN(CCc3ccccc3C(=O)OC)CC2)CC1 [Example 129, Hydrochloride of Methyl (R)-2-(2-(4-(1-amino-2-(4-(2-ethoxy-6-fluorobenzyl)piperazin-1-yl)-2-oxoethyl)piperidin-1-yl)ethyl)benzoate] | A (12.5 μM<EC75≤25 μM) | 
CCOc1cccc(F)c1CN1CCN(C(=O)[C@H](N)C2CCN(CCc3cccc(O)c3)CC2)CC1 [Example 130, Hydrochloride of (R)-2-amino-1-(4-(2-ethoxy-6-fluorobenzyl)piperazin-1-yl)-2-(1-(3-hydrophenethyl)piperidin-4-yl) ethan-1-one] | B (25 μM<EC75≤100 μM) | A (12.5 μM<EC75≤25 μM)
CCOc1cccc(F)c1CN1CCN(C(=O)[C@H](N)C2CCN(CCc3ccccc3N)CC2)CC1 [Example 146, Hydrobromide of (R)-2-amino-2-(1-(2-aminophenethyl)piperidin-4-yl)-1-(4-(2-ethoxy-6-fluorobenzyl)piperazin-1-yl) ethan-1-one] | A (12.5 μM<EC75≤25 μM) | 
CCOc1cccc(F)c1CN1CCN(C(=O)[C@H](N)C2CCN(CCc3cn(-c4ccccc4F)c4ccccc34)CC2)CC1 [Example 157, Hydrobromide of (R)-2-amino-1-(4-(2-ethoxy-6-fluorobenzyl)piperazin-1-yl)-2-(1-(2-(1-(2-fluorophenyl)-1H-indol-3-yl)ethyl)piperidin-4-yl)ethan-1-one] | A (12.5 μM<EC75≤25 μM) | A (12.5 μM<EC75≤25 μM)
CCOc1cccc(F)c1CN1CCN(C(=O)[C@H](N)C2CCN(CCc3nsc4ccccc34)CC2)CC1 [Example 160, Hydrobromide of (R)-2-amino-2-(1-(2-(benzo[d]isothiazol-3-yl)ethyl)piperidin-4-yl)-1-(4-(2-ethoxy-6-fluorobenzyl)piperazin-1-yl)ethan-1-one] | A (12.5 μM<EC75≤25 μM) | A (12.5 μM<EC75≤25 μM)
CN(C)c1ccccc1CN1CCN(C(=O)CN2CCN(CCc3ccccc3)CC2)CC1 [Example 224, Hydrochloride of 1-(4-(2-(dimethylamino)benzyl)piperazin-1-yl)-2-(4-phenethylpiperazin-1-yl)ethan-1-one] |  | A (12.5 μM<EC75≤25 μM)
N#Cc1ccccc1CN1CCN(C(=O)CN2CCN(CCc3ccccc3)CC2)CC1 [Example 234, Hydrochloride of 2-((4-(2-(4-phenethylpiperazin-1-yl)acetyl)piperazin-1-yl)methyl)benzonitrile] |  | B (25 μM<EC75≤100 μM)
O=C(CN1CCN(CCc2ccccc2)CC1)N1CCN(Cc2ccccc2[N+](=O)[O-])CC1 [Example 235, Hydrochloride of 1-(4-(2-nitrobenzyl)piperazin-1-yl)-2-(4-phenethylpiperazin-1-yl) ethan-1-one] | B (25 μM<EC75≤100 μM) | B (25 μM<EC75≤100 μM)
O=C(CN1CCN(CCc2ccccc2)CC1)N1CCN(Cc2sccc2Cl)CC1 [Example 251, Hydrochloride of 1-(4-((3-chlorothiophen-2-yl)methyl)piperazin-1-yl)-2-(4-phenethylpiperazin-1-yl)ethan-1-one] | A (12.5 μM<EC75≤25 μM) | B (25 μM<EC75≤100 μM)
O=C(CN1CCN(CCc2ccccc2)CC1)N1CCN(Cc2ccccc2F)CC1 [Example 259, hydrochloride of 1-(4-(2-fluorobenzyl)piperazin-1-yl)-2-(4-phenethylpiperazin-1-yl)ethan-1-one] | A (12.5 μM<EC75≤25 μM) | 
O=C(CN1CCN(CCc2ccccc2)CC1)N1CCN(Cc2ccccc2CO)CC1 [Example 262, Hydrochloride of 1-(4-(2-(hydroxymethyl)benzyl)piperazin-1-yl)-2-(4-phenethylpiperazin-1-yl)etban-1-one] | A (12.5 μM<EC75≤25 μM) | B (25 μM<EC75≤100 μM)
COCc1ccccc1CN1CCN(C(=O)CN2CCN(CCc3ccccc3)CC2)CC1 [Example 263, Hydrochloride of 1-(4-(2-(methoxymethyl)benzyl)piperazin-1-yl)-2-(4-phenethylpiperazin-1-yl)ethan-1-one] | A (12.5 μM<EC75≤25 μM) | A (12.5 μM<EC75≤25 μM)
COc1cccc(OCCN)c1CN1CCN(C(=O)CN2CCN(CCc3ccccc3)CC2)CC1 [Example 266, hydrochloride of 1-(4-(2-(2-aminoethoxy)-6-methoxybenzyl)piperazin-1-yl)-2-(4-phenethylpiperazin-1-yl)ethan-1-one] |  | B (25 μM<EC75≤100 μM)
COc1cccc(F)c1C(C)N1CCN(C(=O)CN2CCN(CCc3ccccc3)CC2)CC1.Cl (centres unmarked) [Example 269, hydrochloride of 1-(4-(1-(2-fluoro-6-methoxyphenyl)ethyl)piperazin-1-yl)-2-(4-phenethylpiperazin-1-yl)ethan-1-one] | A (12.5 μM<EC75≤25 μM) | A (12.5 μM<EC75≤25 μM)
COc1ccccc1CN1CCN(C(=O)CN2CCN(CCc3ccccn3)CC2)CC1 [Example 288, 1-(4-(2-Methoxybenzyl)piperazin-1-yl)-2-(4-(2-(pyridin-2-yl)ethyl)piperazin-1-yl)ethan-1-one and hydrochloride thereof] | B (25 μM<EC75≤100 μM) | B (25 μM<EC75≤100 μM)
COc1ccccc1CN1CCN(C(=O)CN2CCN(CCc3cncs3)CC2)CC1 [Example 294, 1-(4-(2-Methoxybenzyl)piperazin-1-yl)-2-(4-(2-(thiazol-5-yl)ethyl)piperazin-1-yl)ethan-1-one and hydrochloride thereof] |  | A (12.5 μM<EC75≤25 μM)
COc1ccccc1CN1CCN(C(=O)CC2CCN(CCc3ccccc3)CC2)CC1 [Example 304, hydrochloride of 1-(4-(2-methoxybenzyl)piperazin-1-yl)-2-(1-phenethylpiperidin-4-yl)ethan-1-one] | A (12.5 μM<EC75≤25 μM) | B (25 μM<EC75≤100 μM)
COc1ccccc1CN1CCN(C(=O)CN2CCC(CCc3ccccc3)(NC(C)=O)CC2)CC1 [Example 415, hydrochloride of N-(1-(2-(4-(2-methoxybenzyl)piperazin-1-yl)-2-oxoethyl)-4-phenethylpiperidin-4-yl)acetamide] |  | A (12.5 μM<EC75≤25 μM)
